# In PubChem BioAssay AID1083 (University of Pittsburgh Molecular Library Screening Center, 2008):
# “And” between values parts separate entries of the source, which are not always exact repeats. Equal entries are not always repeated. The source made the active and inactive calls. The rule behind the calls is not given here.
# Target: Serine/threonine-protein kinase PLK1 (Homo sapiens) (UniProt P53350)
# Assay: PLK1 polo-box domain peptide-binding inhibitors, SAR follow-up, biochemical, fluorescence polarization, purchased analogs, concentration response (AID 1083)
# Conditions: Plk1 PBD peptide binding
# Sequence of Serine/threonine-protein kinase PLK1 (Homo sapiens) (P53350 whole entry, looked up, the tested form may be a part): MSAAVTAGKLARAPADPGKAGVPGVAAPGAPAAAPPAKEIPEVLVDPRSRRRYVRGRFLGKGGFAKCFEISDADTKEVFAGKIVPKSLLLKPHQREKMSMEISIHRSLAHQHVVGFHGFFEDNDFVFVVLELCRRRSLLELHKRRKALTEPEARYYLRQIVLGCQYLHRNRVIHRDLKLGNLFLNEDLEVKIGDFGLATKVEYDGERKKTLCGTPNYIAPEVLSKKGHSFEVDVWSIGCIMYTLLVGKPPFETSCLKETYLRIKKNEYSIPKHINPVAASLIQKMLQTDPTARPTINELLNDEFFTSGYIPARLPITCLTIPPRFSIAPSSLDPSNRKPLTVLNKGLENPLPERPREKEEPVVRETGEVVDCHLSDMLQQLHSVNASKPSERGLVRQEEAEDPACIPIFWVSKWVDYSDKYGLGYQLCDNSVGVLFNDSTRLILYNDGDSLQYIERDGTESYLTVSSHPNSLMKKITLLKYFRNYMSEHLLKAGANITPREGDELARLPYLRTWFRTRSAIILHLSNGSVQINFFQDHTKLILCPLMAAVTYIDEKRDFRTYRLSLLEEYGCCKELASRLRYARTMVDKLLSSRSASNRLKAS
row,SMILES,IC50
1,CC(=O)N(CN1C(=O)c2ccccc2C1=O)c1ccc(Cl)c(Cl)c1,> 50 µM (inactive)
2,O=c1cc[nH]c2cc(N3CCOCC3)c(F)cc12,> 50 µM (inactive)
3,O=C(COC(=O)c1ccc(NC(=O)c2ccc(Cl)cc2)cc1)c1ccccc1,> 50 µM (inactive)
4,CCOC(=O)c1ccc(NC(=O)C2Cc3ccccc3C(=O)O2)cc1 (centres undefined),> 50 µM (inactive)
5,CCOC(=O)c1ccc(N=Cc2c(O)n(CC)c(=O)[nH]c2=O)cc1,> 50 µM (inactive)
6,CCN(CC)CCOC(=O)c1ccc(NC(=O)c2cc(OC)c(OC)cc2OC)cc1,> 50 µM (inactive)
7,COc1cc(Br)cc(C=C2C(=O)NC(=O)NC2=O)c1O,> 50 µM (inactive)
8,CCOC(=O)c1ccc(N=Cc2c(O)n(-c3cccc(C)c3)c(=O)[nH]c2=O)cc1,> 50 µM (inactive)
9,COC(=O)c1ccc(NC(=O)c2cc(-c3ccc(C)o3)nc3ccccc23)cc1,> 50 µM (inactive)
10,CC(=O)N(CN1C(=O)c2ccc([N+](=O)[O-])cc2C1=O)c1ccc(Oc2ccccc2)cc1,> 50 µM (inactive)
11,O=C1NC(=O)C(=Cc2c3ccccc3cc3ccccc23)C(=O)N1,> 50 µM (inactive)
12,CCn1nc(-c2ccccc2)nc2c(=O)n(C)c(=O)nc1-2,0.524 µM
13,O=c1[nH]c(=O)c2nc(-c3ccc(Cl)cc3)cnc2[nH]1,> 50 µM (inactive)
14,CCN(CC)CCOC(=O)c1ccc(N=Cc2c(O)[nH]c(=O)[nH]c2=O)cc1,> 50 µM (inactive)
15,CC(=O)N(CN1C(=O)c2ccccc2C1=O)c1cc(C)ccc1C,> 50 µM (inactive)
16,CCn1nc(-c2cccc(Cl)c2)nc2c(=O)n(C)c(=O)nc1-2,0.282 µM and > 50 µM (inactive)
17,CCOC(=O)c1ccc(NC(=O)c2cncc(Br)c2)cc1,> 50 µM (inactive)
18,CC(=O)N(CN1C(=O)c2ccccc2C1=O)c1ccccc1Cl,> 50 µM (inactive)
19,CCOC(=O)c1ccc(NC(=O)c2cc(C)cc(C)c2)cc1,> 50 µM (inactive)
20,CCCCCC(=O)N(CN1C(=O)c2ccccc2C1=O)c1ccc(OCc2ccccc2)cc1,> 50 µM (inactive)
21,CC(=O)N(CN1C(=O)c2ccccc2C1=O)c1ccc(Oc2ccccc2)cc1,> 50 µM (inactive)
22,COc1ccc(N(CN2C(=O)c3cc(Cl)c(Cl)cc3C2=O)C(C)=O)cc1,> 50 µM (inactive)

row,SMILES,IC50
1,Cn1c(=O)[nH]c2nnc(-c3ccccc3)nc2c1=O,> 50 µM (inactive)
2,CCCCCOC(=O)c1ccc(NC(=O)c2ccc([N+](=O)[O-])cc2)cc1,> 50 µM (inactive)
3,CCOC(=O)c1ccc(NC(=O)C2COc3ccccc3O2)cc1 (centres undefined),> 50 µM (inactive)
4,CCOC(=O)c1ccc(NC(=O)c2ccc(Cl)c(Cl)c2)cc1,> 50 µM (inactive)
5,Cn1c(=O)c2nc(-c3ccccc3)c(-c3ccccc3)nc2n(C)c1=O,> 50 µM (inactive)
6,CC(=O)N(CN1C(=O)c2ccccc2C1=O)c1ccc(I)cc1,> 50 µM (inactive)
7,Cn1c(=O)c2nc(-c3ccccc3)c(=O)[nH]c2n(C)c1=O,> 50 µM (inactive)
8,CCCCCCC(=O)N(CN1C(=O)c2ccccc2C1=O)c1ccccc1OC,> 50 µM (inactive)
9,COc1ccc(N(CN2C(=O)c3ccccc3C2=O)C(C)=O)cc1,> 50 µM (inactive)
10,CCOC(=O)c1ccc(N=Cc2c(O)n(Cc3ccccc3Cl)c(=O)[nH]c2=O)cc1,> 50 µM (inactive)
11,COc1ccc(C(=O)COC(=O)c2ccc(NC(=O)c3ccccc3)cc2)cc1,> 50 µM (inactive)
12,CCn1nc(-c2ccccc2Cl)nc2c(=O)n(C)c(=O)nc1-2,1.55 µM
13,CCOC(=O)c1ccc(NC(=O)c2ccc3snnc3c2)cc1,> 50 µM (inactive)
14,Cn1nc(-c2ccc(C(F)(F)F)cc2)nc2c(=O)n(C)c(=O)nc1-2,0.21 µM and 0.851 µM
15,CCOC(=O)c1ccc(NC(=O)C23CC4CC(CC(C4)C2)C3)cc1,> 50 µM (inactive)
16,CCN(CC)CCOC(=O)c1ccc(N=Cc2c(O)n(-c3c(C)cc(C)cc3C)c(=O)[nH]c2=O)cc1,> 50 µM (inactive)
17,Cn1c(=O)[nH]c2nnc(-c3ccc([N+](=O)[O-])cc3)nc2c1=O,> 50 µM (inactive)
18,CCOC(=O)c1ccc(NC(=O)C2C3C=CC(C3)C2C(=O)O)cc1 (centres undefined),> 50 µM (inactive)
19,CC(=O)N(/C=C1\Sc2ccccc2C1=O)c1ccc(I)cc1,> 50 µM (inactive)
20,CC(=O)N(CN1C(=O)c2ccccc2C1=O)c1ccc(C)c(Cl)c1,> 50 µM (inactive)
21,Cn1c(O)c(C(=O)c2ccccc2Cl)c(=O)n(C)c1=O,> 50 µM (inactive)
22,CC(=O)N(/N=C1\Sc2ccccc2C1=O)c1ccc(C)cc1C,> 50 µM (inactive)
